According to patent publication US10532103B2, “Degradation of cyclin-dependent kinase 9 (CDK9) by conjugation of CDK9 inhibitors with E3 ligase ligand and methods of use” (Dana-Farber Cancer Institute, Inc., priority 2016, dated 2020):
“Also recorded” adds a separate entry of the source.

Legend:
Type in all cases: cell-based
[1] = biological target: T1, CDK13 (Homo sapiens, UniProt Q14004); assay: Enzyme degradation assay (western blot) in Jurkat cells, CDK13
T1 construct: endogenous in cells; host or cells: Jurkat cells
Procedure: (§1) Cells are treated with a control or a bifunctional compound of the application alone or in combination with an agent that blocks proteasomal degradation at a single concentration or various concentrations. After treatment, cells are washed and harvested by resuspending in buffer and lysed on ice 30 minutes. Lysates are then cleared by centrifugation. Samples are boiled and equal amount of protein is loaded onto polyacrylamide gel. The gel is transferred to nitrocellulose and blotted for CDK13, CDK12, CDK9, CDK7, CDK2, CDK1, PolII serine 2 phosphorylation or Tubulin.
(§2) Jurkat cells were treated with DMSO (as a control) or 500 nM of SNS-032 or 500 nM of a bifunctional compound of the application (i.e., Compound I-1, Compound I-2, or Compound I-3) or in combination with 5 μM MG132 for 6 hours. MGl32 is an agent that blocks proteasomal degradation. After treatment, cells were washed and harvested by resuspending in RIPA lysis buffer ([…] Tris-HCl, […] NaCl, 1% NP-40, 0.5% sodium deoxycholate, and 1% SDS, pH 7.4, protease and phosphatase inhibitors) and lysed on ice 30 minutes. Lysates were cleared by centrifugation at 15,000 rpm 30 minutes. Samples were boiled and equal amounts of protein were loaded onto gel. The gel was transferred to nitrocellulose and blotted for CDK13, CDK12, CDK9, CDK7, CDK2, CDK1, or tubulin.
(§3) Alternatively, Jurkat cells were treated with DMSO (as a control) or various concentrations of Compound I-3 alone (about 312 nm, 625 nm, 1.25 uM, 2.5 uM, and 5 uM) or with 5 μM MG132. After treatment, cells were washed and harvested by resuspending in RIPA lysis buffer ([…] Tris-HCl, […] NaCl, 1% NP-40, 0.5% sodium deoxycholate, and 1% SDS, pH 7.4, protease and phosphatase inhibitors) and lysed on ice 30 minutes. Equal amount of protein was loaded onto gel and blotted for CDK13, CDK9, CDK7, CDK2, CDK1, or tubulin.
(§4) Jurkat cells were treated with 500 nM of Compound I-3 for 15 minutes, 30 minutes, 1 hour, 2 hours, 3 hours, 4 hours, or 6 hours or DMSO control for 6 hours. After treatment, cells were washed and harvested by resuspending in RIPA lysis buffer ([…] Tris-HCl, […], 1% NP-40, 0.5% sodium deoxycholate, and 1% SDS, pH 7.4, protease and phosphatase inhibitors) and lysed on ice 30 minutes. Equal amount of protein was loaded onto gel and blotted for CDK13, CDK12, CDK9, or tubulin.

[2] = biological target: T2, CDK12 (Homo sapiens, UniProt Q9NYV4); assay: Enzyme degradation assay (western blot) in Jurkat cells, CDK12; settings: for degradation of CDK12: 6 hours
T2 construct: endogenous in cells; host or cells: Jurkat cells
Procedure: as §1, §2, §4

[3] = biological target: T3, CDK9 (Homo sapiens, UniProt P50750); assay: Enzyme degradation assay (western blot) in Jurkat cells, CDK9
T3 construct: endogenous in cells; host or cells: Jurkat cells
Procedure: as §1, §2, §3
as §4, with “a DMSO (as a control) or various concentrations SNS-032 or” for “500 nM of”, “I-3” for “I-3 for 15 minutes, 30 minutes, 1 hour, 2 hours, 3 hours, 4 hours, or 6 hours or DMSO control”, “[…],” for “CDK13, CDK12,”
as §4

[4] = system: Molt4 cereblon null cells (CRBN−/−); assay: Cell viability assay (celltiter glo), cereblon null cells; settings: cereblon knockout (CRBN−/−) Molt4 cells, titration, 72 hours
Procedure: (§5) Wild-type or cereblon null cells are treated with various concentrations of a bifunctional compound of the invention and allowed to grow. Cells are then assayed to determine cell viability by measuring the amount of ATP present, which is an indicator of cell metabolic activity. Results are graphed as relative luminescent values.
(§6) Molt4 wild-type or cereblon null cells were treated with a titration of a bifunctional compound of the invention (i.e., Compound I-1, Compound I-2, or Compound I-3) and allowed to grow for 72 hours. Cells were assayed using celltiter glo (Promega) to determine cell viability by measuring the amount of ATP present, which is an indicator of cell metabolic activity. Results are graphed as relative luminescent values.

[5] = system: PolII serine 2 phosphorylation; assay: Western blot for PolII serine 2 phosphorylation in Jurkat cells; settings: various concentrations, 6 hours
Procedure: as §1
as §4, with “a DMSO (as a control) or various concentrations SNS-032 or” for “500 nM of”, “I-3” for “I-3 for 15 minutes, 30 minutes, 1 hour, 2 hours, 3 hours, 4 hours, or 6 hours or DMSO control”, “[…],” for “CDK13, CDK12,”

[6] = system: Molt4 wild-type cells; assay: Cell viability assay (celltiter glo), wild-type cells; settings: wild-type (WT) Molt4 cells, titration, 72 hours
Procedure: as §5, §6

T2 sequence (Q9NYV4 whole entry): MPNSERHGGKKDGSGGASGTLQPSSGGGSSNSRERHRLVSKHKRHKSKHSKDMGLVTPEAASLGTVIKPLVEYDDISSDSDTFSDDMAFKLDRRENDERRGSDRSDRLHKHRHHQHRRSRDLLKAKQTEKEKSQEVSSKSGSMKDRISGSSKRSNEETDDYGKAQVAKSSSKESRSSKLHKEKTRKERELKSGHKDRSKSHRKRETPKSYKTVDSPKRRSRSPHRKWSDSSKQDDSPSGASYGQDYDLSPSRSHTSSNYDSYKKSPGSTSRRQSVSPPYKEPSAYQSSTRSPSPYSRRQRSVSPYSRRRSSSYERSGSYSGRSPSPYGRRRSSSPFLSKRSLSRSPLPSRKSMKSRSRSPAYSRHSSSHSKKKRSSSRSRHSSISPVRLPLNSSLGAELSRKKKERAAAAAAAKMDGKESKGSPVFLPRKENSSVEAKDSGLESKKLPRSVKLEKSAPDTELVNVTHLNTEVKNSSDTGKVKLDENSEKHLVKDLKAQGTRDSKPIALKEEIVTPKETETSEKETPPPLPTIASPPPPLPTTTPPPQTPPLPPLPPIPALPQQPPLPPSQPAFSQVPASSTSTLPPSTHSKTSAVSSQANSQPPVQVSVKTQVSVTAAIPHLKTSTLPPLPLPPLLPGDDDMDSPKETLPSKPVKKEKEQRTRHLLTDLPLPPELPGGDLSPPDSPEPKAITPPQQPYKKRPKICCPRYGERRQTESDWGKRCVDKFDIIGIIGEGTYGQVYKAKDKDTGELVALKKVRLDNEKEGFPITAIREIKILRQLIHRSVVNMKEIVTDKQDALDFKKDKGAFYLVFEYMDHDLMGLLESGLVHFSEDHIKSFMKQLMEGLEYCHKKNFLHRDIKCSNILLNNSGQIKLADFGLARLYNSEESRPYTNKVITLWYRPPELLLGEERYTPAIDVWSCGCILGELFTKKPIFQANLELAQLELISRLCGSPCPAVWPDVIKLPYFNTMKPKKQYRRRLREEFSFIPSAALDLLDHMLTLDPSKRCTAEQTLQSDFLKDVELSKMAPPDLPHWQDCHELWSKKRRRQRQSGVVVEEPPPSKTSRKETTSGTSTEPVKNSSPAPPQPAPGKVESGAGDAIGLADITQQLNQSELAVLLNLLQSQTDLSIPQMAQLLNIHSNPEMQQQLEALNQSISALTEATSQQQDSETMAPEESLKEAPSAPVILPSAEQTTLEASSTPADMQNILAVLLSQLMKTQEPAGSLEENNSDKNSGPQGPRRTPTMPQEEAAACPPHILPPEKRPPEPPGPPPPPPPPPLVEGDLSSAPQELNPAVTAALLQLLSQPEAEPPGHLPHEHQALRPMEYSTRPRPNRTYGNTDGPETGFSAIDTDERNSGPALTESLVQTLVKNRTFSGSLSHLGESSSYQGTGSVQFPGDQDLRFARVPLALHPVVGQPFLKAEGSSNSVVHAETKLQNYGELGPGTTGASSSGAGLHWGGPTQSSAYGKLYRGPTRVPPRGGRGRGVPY
T2 sequence (O75909 whole entry partner): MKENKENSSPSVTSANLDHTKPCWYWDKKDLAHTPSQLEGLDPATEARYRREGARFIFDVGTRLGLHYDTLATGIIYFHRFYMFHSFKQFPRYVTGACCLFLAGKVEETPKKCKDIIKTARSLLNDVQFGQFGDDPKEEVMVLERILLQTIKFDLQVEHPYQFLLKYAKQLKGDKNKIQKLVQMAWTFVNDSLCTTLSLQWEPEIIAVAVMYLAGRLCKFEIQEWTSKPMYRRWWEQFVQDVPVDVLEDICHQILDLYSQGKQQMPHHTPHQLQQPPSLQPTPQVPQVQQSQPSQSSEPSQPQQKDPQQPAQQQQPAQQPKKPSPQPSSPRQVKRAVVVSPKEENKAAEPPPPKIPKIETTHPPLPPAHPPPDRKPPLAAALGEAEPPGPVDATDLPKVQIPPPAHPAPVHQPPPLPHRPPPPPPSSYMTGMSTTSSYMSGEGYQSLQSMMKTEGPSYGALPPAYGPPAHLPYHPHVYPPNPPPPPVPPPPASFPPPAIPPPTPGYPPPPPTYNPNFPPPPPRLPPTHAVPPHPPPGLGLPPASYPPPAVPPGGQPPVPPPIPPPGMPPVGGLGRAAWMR
T1 sequence (Q14004 whole entry): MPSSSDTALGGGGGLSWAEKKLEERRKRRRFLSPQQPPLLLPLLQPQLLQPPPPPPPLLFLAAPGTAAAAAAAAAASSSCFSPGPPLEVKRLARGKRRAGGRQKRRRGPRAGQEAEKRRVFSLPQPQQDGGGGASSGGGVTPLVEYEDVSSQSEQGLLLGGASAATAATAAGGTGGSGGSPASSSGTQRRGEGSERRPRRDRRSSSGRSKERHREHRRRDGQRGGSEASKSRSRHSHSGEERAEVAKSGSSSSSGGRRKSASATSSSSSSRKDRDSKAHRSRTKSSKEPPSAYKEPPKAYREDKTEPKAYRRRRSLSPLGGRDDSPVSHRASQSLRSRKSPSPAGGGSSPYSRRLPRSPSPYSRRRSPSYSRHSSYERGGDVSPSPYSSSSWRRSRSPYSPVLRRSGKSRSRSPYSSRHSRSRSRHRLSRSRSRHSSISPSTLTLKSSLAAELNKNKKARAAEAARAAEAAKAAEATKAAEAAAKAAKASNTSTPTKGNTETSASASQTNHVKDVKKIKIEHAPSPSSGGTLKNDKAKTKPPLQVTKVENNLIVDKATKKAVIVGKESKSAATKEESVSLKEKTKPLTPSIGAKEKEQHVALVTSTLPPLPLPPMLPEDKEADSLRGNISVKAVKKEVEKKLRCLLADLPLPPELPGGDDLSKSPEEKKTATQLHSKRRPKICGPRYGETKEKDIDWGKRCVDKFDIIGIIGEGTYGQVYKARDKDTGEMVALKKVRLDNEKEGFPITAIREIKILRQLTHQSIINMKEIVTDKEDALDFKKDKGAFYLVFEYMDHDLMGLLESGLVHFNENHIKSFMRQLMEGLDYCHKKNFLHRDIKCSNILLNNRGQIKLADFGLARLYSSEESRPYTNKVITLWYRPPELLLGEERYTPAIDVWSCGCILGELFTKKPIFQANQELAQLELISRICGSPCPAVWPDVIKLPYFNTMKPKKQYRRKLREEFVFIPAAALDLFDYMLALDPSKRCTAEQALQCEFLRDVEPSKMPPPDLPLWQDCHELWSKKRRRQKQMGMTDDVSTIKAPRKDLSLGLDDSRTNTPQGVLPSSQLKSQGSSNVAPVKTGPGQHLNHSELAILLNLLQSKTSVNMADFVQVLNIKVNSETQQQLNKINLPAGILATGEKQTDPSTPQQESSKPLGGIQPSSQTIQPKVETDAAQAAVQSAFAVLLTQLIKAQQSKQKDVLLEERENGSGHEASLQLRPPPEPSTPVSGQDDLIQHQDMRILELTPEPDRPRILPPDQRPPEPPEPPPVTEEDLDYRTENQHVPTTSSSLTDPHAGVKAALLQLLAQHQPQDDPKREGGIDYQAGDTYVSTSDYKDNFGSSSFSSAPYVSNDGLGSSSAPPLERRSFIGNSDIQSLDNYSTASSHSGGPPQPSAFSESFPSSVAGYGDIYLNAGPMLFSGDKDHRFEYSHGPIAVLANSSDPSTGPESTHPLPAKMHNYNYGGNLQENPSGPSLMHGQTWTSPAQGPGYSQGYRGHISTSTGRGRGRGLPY
T1 sequence (O75909 whole entry partner): as the sequence (O75909 whole entry partner) above
T3 sequence (P50750 whole entry): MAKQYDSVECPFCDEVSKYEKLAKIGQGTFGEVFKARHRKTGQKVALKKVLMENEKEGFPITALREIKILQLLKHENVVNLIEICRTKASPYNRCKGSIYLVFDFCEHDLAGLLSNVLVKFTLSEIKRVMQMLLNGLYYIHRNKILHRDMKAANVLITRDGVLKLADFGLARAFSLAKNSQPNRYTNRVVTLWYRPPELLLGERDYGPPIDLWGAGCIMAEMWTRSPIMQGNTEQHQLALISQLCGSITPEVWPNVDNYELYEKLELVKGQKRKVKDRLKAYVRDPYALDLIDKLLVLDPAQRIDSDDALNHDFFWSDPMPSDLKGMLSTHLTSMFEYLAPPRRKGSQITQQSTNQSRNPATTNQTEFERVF
T3 sequence (O60563 whole entry partner): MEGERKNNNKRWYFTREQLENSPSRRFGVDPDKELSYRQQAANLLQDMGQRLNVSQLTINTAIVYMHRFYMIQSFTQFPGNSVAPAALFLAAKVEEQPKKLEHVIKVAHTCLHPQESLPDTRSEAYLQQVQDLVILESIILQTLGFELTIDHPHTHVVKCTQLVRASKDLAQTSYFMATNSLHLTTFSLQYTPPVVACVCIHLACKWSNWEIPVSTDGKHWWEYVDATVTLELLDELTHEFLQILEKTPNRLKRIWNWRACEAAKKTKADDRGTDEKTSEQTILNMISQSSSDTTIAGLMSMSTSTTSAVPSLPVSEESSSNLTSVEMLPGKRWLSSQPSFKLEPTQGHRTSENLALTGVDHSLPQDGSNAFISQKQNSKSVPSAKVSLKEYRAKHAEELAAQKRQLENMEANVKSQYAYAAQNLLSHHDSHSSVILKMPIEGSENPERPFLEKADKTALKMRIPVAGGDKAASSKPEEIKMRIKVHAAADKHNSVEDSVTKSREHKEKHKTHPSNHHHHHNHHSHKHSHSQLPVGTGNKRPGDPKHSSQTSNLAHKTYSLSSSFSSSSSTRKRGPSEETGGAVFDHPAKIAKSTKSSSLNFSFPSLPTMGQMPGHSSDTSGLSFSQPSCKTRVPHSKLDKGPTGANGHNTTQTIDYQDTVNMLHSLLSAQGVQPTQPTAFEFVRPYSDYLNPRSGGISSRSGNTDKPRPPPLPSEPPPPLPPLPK

| SMILES | degradation of CDK13 on co-treatment with MG132 ([1]; 500 nM + 5 uM MG132, 6 hours) | CDK13 levels over time ([1]; 500 nM, 15 minutes to 6 hours) | degradation of CDK13 ([1]; 500 nM, 6 hours) | degradation of CDK13, various concentrations ([1]; about 312 nm to 5 uM, 6 hours) | degradation of CDK13, various concentrations, with MG132 ([1]; with 5 μM MG132, 6 hours) | degradation of CDK12 on co-treatment with MG132 ([2]; 500 nM + 5 uM MG132, 6 hours) | CDK12 levels over time ([2]; 500 nM, 15 minutes to 6 hours) | degradation of CDK12 ([2]; 500 nM) | degradation of CDK9 on co-treatment with MG132 ([3]; 500 nM + 5 uM MG132, 6 hours) | CDK9 levels over time ([3]; 500 nM, 15 minutes to 6 hours) | degradation of CDK9 ([3]; 500 nM, 6 hours) | degradation of CDK9, various concentrations ([3]; about 312 nm to 5 uM, 6 hours) | degradation of CDK9, various concentrations, with MG132 ([3]; with 5 μM MG132, 6 hours) | anti-proliferative effect [4] | serine 2 phosphorylation of PolII [5] | anti-proliferative effect [6] |
| --- | --- | --- | --- | --- | --- | --- | --- | --- | --- | --- | --- | --- | --- | --- | --- | --- |
| CC(C)(C)c1cnc(CSc2cnc(NC(=O)C3CCN(CC(=O)NCCOCCOCCOCCNc4cccc5c4C(=O)N(C4CCC(=O)NC4=O)C5=O)CC3)s2)o1 (centres unmarked) [Compound I-3, N-(5-(((5-(tert-butyl)oxazol-2-yl)methyl)thio)thiazol-2-yl)-1-(14-((2-(2,6-dioxopiperidin-3-yl)-1,3-dioxoisoindolin-4-yl)amino)-2-oxo-6,9,12-trioxa-3-azatetradecyl)piperidine-4-carboxamide] | abolished; also recorded: largely inhibited | unaffected | partial degradation | CDK13 degradation at higher concentrations; also recorded: degradation also increased | abolished | abolished; also recorded: largely inhibited | unaffected | partial degradation | reduced; also recorded: largely inhibited | decrease in CDK9 levels over time; also recorded: degradation of CDK9 increased with time of exposure | complete degradation | specificity for CDK9 at lower concentrations; also recorded: degradation also increased | abolished degradation of CDK9 | not in the CRBN−/− cells; also recorded: anti-proliferation was no longer observed | decreased serine 2 phosphorylation | showed antiproliferative effects; also recorded: caused anti-proliferation |
| CC(C)(C)c1cnc(CSc2cnc(NC(=O)C3CCNCC3)s2)o1 [SNS032, N-(5-(((5-(tert-butyl)oxazol-2-yl)methyl)thio)thiazol-2-yl)piperidine-4-carboxamide, reference compound] |  |  | no degradation |  |  |  |  | no degradation |  |  | no degradation |  |  |  | decreased serine 2 phosphorylation |  |
